The assay deals with Toll-like receptor 4 (Homo sapiens, UniProt O00206). As to the kind of experiment: Binding affinity to recombinant human TLR4 assessed as dissociation constant up to 200 uM by surface plasmon resonance analysis. A general note: SPR reads the build-up and loss of mass on a sensor chip optically.

Where a SMILES comes first, the peptide text is derived from it. Bridges are numbered along the chain shown (N, C = ends).

Sequence of Toll-like receptor 4 (O00206 whole entry): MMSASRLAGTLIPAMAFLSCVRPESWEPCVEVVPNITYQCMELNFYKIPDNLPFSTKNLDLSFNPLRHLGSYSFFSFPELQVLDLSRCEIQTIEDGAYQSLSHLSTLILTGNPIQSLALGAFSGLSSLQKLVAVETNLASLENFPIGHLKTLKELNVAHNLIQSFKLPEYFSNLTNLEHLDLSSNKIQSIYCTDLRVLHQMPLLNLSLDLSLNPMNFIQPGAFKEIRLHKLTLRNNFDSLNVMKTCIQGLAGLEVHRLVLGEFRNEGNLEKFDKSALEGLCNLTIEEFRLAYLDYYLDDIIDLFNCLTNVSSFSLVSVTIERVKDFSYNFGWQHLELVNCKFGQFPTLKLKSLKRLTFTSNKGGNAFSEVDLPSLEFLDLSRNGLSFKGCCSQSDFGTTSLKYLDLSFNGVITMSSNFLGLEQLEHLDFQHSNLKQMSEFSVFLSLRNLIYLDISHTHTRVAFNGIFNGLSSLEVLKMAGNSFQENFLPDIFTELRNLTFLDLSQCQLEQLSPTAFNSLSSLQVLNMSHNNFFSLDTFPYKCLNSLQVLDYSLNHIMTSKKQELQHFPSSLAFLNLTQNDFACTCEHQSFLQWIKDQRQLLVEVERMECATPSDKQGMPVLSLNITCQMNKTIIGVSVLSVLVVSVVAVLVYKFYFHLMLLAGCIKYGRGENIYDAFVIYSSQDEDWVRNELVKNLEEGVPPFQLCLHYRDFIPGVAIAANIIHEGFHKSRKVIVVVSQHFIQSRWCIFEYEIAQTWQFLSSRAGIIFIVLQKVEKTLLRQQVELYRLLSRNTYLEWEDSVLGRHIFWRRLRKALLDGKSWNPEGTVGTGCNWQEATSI

As usually defined, the Kd is the concentration at which binding is half-saturated. Consider H-LGVFSSWWIKLV-OH, for which the Kd came to 1.1 nM. The value for `CC[C@H](C)[C@@H]1NC(=O)[C@H](Cc2c[nH]c3ccccc23)NC(=O)[C@H](Cc2c[nH]c3ccccc23)NC(=O)[C@@H](NC(=O)[C@H](CO)NC(=O)[C@H](Cc2ccccc2)NC(=O)[C@@H](NC(=O)CNC(=O)[C@@H](N)CC(C)C)C(C)C)CC(=O)NCCCC[C@@H](C(=O)N[C@@H](CC(C)C)C(=O)N[C@H](C(=O)O)C(C)C)NC1=O` (H-LGVFSDWWIKLV-OH; lactam 6-10) was 1.4 nM.
